Measurements as given in patent publication US8513423B2 (Janssen Pharmaceutica, NV, priority 2010, dated 2013).
Changes are numbered by the printed parent chain. Where two headings read alike, the source gives them in different places.

Assays:
[1] = molecular target: T1, purified wild type MGL (wt-MGLL 6H-11-313) (Homo sapiens, UniProt Q99685); assay: MGL enzyme activity assay (4MU-B cleavage), wild type MGL; assay type: biochemical; details: 10 μM 4MU-B, 5 nM enzyme, 37° C., read-out: MGL wild type inh IC50
T1 construct: purified wild type MGL (wt-MGLL 6H-11-313)
T1 sequence (Q99685 1-303): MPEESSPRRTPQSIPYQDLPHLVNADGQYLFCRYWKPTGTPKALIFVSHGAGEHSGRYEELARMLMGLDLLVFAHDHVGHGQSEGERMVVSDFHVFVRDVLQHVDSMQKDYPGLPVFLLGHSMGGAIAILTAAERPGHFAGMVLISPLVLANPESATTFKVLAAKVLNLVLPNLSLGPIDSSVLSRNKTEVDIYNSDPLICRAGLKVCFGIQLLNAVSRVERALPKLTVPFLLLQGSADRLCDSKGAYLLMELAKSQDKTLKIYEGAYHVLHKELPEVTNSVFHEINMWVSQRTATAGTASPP
Method: All rate-based assays were performed in black 384-well polypropylene PCR microplates (Abgene) in a total volume of 30 μL. Substrate 4-methylumbelliferyl butyrate (4MU-B; Sigma) and either purified mutant MGL (mut-MGLL 11-313 L179S L186S) or purified wild type MGL (wt-MGLL 6H-11-313) were diluted separately into 20 mM PIPES buffer (pH=7.0), containing 150 mM NaCl and 0.001% Tween 20. Compounds of Formula (I) were pre-dispensed (50 nL) into the assay plate using a Cartesian Hummingbird prior to adding 4MU-B (25 μL of 1.2× solution to a final concentration of 10 μM) followed by enzyme (5 μL of a 6× solution to a final concentration of 5 nM) to initiate the reaction. Final compound concentrations ranged from 17 to 0.0003 μM. The fluorescence change due to 4MU-B cleavage was monitored with excitation and emission wavelengths of 335 and 440 nm, respectively, and a bandwidth of 10 nm (Safire^2, Tecan) at 37° C. for 5 min.
The IC50 values for compounds of Formula (I) were determined using Excel from a fit of the equation to the concentration-response plot of the fractional activity as a function of inhibitor concentration.

mutant MGL = molecular target: T2, mutant MGL (Homo sapiens, UniProt Q99685, L169S/L176S); assay: MGL ThermoFluor assay - mutant; assay type: binding
T2 construct: purified mutant MGL (mut-MGLL 11-313 L179S L186S)
T2 sequence (Q99685 1-303 L169S/L176S): T1 sequence (Q99685 1-303) with L169S, L176S
Method: The ThermoFluor (TF) assay is a 384-well plate-based binding assay that measures thermal stability of proteins^1,2. The experiments were carried out using instruments available from Johnson & Johnson Pharmaceutical Research & Development, LLC. TF dye used in all experiments was 1,8-ANS (Invitrogen: A-47). Final TF assay conditions used for MGL studies were 0.07 mg/ml of mutant MGL, 100 μM ANS, 200 mM NaCl, 0.001% Tween-20 in 50 mM PIPES (pH=7.0).
Screening compound plates contained 100% DMSO compound solutions at a single concentration. For follow-up concentration-response studies, compounds were arranged in a pre-dispensed plate (Greiner Bio-one: 781280), wherein compounds were serially diluted in 100% DMSO across 11 columns within a series. Columns 12 and 24 were used as DMSO reference and contained no compound. For both single and multiple compound concentration-repsonse experiments, the compound aliquots (46 nL) were robotically predispensed directly into 384-well black assay plates (Abgene: TF-0384/k) using the Hummingbird liquid handler. Following compound dispension, protein and dye solutions were added to achieve the final assay volume of 3 μL. The assay solutions were overlayed with 1 μl of silicone oil (Fluka, type DC 200: 85411) to prevent evaporation.
Bar-coded assay plates were robotically loaded onto a thermostatically controlled PCR-type thermal block and then heated from 40 to 90° C. degrees at a ramp-rate of 1° C./min for all experiments. Fluorescence was measured by continuous illumination with UV light (Hamamatsu LC6), supplied via fiber optics and filtered through a band-pass filter (380-400 nm; >6 OD cutoff). Fluorescence emission of the entire 384-well plate was detected by measuring light intensity using a CCD camera (Sensys, Roper Scientific) filtered to detect 500±25 nm, resulting in simultaneous and independent readings of all 384 wells. A single image with 20-sec exposure time was collected at each temperature, and the sum of the pixel intensity in a given area of the assay plate was recorded vs temperature and fit to standard equations to yield the Tm^1. • 1. Pantoliano, M. W., Petrella, E. C., Kwasnoski, J. D., Lobanov, V. S., Myslik, J., Graf, E., Carver, T., Asel, E., Springer, B. A., Lane, P., and Salemme, F. R. (2001) J Biomol Screen 6, 429-40. • 2. Matulis, D., Kranz, J. K., Salemme, F. R., and Todd, M. J. (2005) Biochemistry 44, 5258-66.
The Kd values for compounds of Formula (I) were determined from a fit of the equation to the concentration-response plot of the fractional activity as a function of Tm. For some experiments, quantitative NMR spectroscopy (qNMR) was used to measure concentration of the initial 100% DMSO compound solutions and, using the same fitting method, qKd values were determined

[2] = 0.07 mg/ml mutant MGL, pH=7.0, read-out: MGL mutant ThermoFluor Kd
[3] = compound concentration measured by qNMR, read-out: MGL mutant ThermoFluor qKd (using qNMR conc.)

Row | SMILES | IC50 [1] [µM] | Kd (mutant MGL; [2]) [µM] | Kd (mutant MGL; [3]) [µM]
1 | O=C(c1cccc(-c2cccc(F)c2)c1)N1CC(C2CCN(C(=O)c3cscn3)CC2)C1 [Cpd 11, 4-{1-[(3′-Fluorobiphenyl-3-yl)carbonyl]azetidin-3-yl}-1-(1,3-thiazol-4-ylcarbonyl)piperidine] | 0.498 | 0.732 | –
2 | O=C(c1ccc2c(c1)ncn2CCC(F)(F)F)N1CC(C2CCN(C(=O)c3nccs3)CC2)C1 [Cpd 85, 5-({3-[1-(1,3-Thiazol-2-ylcarbonyl)piperidin-4-yl]azetidin-1-yl}carbonyl)-1-(3,3,3-trifluoropropyl)-1H-benzimidazole] | 0.28 | – | 0.0645
3 | O=C(c1ccccc1)N1CCC(O)(C2CN(C(=O)c3cc4cc(C(F)(F)F)ccc4s3)C2)CC1 [Cpd 6, 1-(Phenylcarbonyl)-4-(1-{[5-(trifluoromethyl)-1-benzothiophen-2-yl]carbonyl}azetidin-3-yl)piperidin-4-ol] | 0.918 | 0.258 | –
4 | Cc1nc2cc(C(=O)N3CC(C4CCN(C(=O)c5nccs5)CC4)C3)ccc2n1CC(F)(F)F [Cpd 90, 2-Methyl-5-({3-[1-(1,3-thiazol-2-ylcarbonyl)piperidin-4-yl]azetidin-l-yl}carbonyl)-1-(2,2,2-trifluoroethyl)-1H-benzimidazole] | 0.173 | – | 0.0237
5 | O=C(c1cc[nH]c1)N1CCC(C2CN(C(=O)c3ccc(-c4ccccc4)cc3)C2)CC1 [Cpd 4, 4-[1-(Biphenyl-4-ylcarbonyl)azetidin-3-yl]-1-(1H-pyrrol-3-ylcarbonyl)piperidine] | 0.154 | 0.162 | –
6 | O=C(c1cccc(-c2cccc(F)c2)c1)N1CC(C2CCN(C(=O)c3ccc[nH]3)CC2)C1 [Cpd 23, 4-{1-[(3′-Fluorobiphenyl-3-yl)carbonyl]azetidin-3-yl}-1-(1H-pyrrol-2-ylcarbonyl)piperidine] | 0.368 | 0.5 | –
7 | O=C(c1cscn1)N1CCC(C2CN(C(=O)c3ccc(-c4ccccc4)cc3F)C2)CC1 [Cpd 9, 4-{1-[(3-Fluorobiphenyl-4-yl)carbonyl]azetidin-3-yl}-1-(1,3-thiazol-4-ylcarbonyl)piperidine] | 0.114 | 0.1 | –
8 | O=C(c1ccc2c(c1)[nH]c(=O)n2CCC(F)(F)F)N1CC(C2CCN(C(=O)c3nccs3)CC2)C1 [Cpd 100, 5-({3-[1-(1,3-Thiazol-2-ylcarbonyl)piperidin-4-yl]azetidin-1-yl}carbonyl)-1-(3,3,3-trifluoropropyl)-1,3-dihydro-2H-benzimidazol-2-one] | 0.101 | – | 0.0888
9 | O=C(c1cscn1)N1CC(C2CCN(C(=O)c3ccc(-c4ccccc4)cc3F)CC2)C1 [Cpd 46] | 0.111 | – | 0.02
10 | Cc1nc2cc(C(=O)N3CC(C4CCN(C(=O)c5nccs5)CC4)C3)ccc2n1CCC(F)(F)F [Cpd 91, 2-Methyl-5-({3-[1-(1,3-thiazol-2-ylcarbonyl)piperidin-4-yl]azetidin-l-yl}carbonyl)-1-(3,3,3-trifluoropropyl)-1H-benzimidazole] | 0.237 | – | 0.0325

Compounds with a lower IC50 [1], results first:

Row | IC50 [1] [µM] | Kd (mutant MGL; [2]) [µM] | Kd (mutant MGL; [3]) [µM] | SMILES
11 | 0.0173 | – | 0.0167 | O=C(c1ccc2c(c1)[nH]c(=O)n2-c1ccc(C(F)(F)F)cc1)N1CC(C2CCN(C(=O)c3nccs3)CC2)C1 [Cpd 99, 5-({3-[1-(1,3-Thiazol-2-ylcarbonyl)piperidin-4-yl]azetidin-1-yl}carbonyl)-1-[4-(trifluoromethyl)phenyl]-1,3-dihydro-2H-benzimidazol-2-one]
12 | 0.0232 | – | 0.0148 | O=C(c1ccc2c(c1)ncn2-c1ccc(F)cc1)N1CC(C2CCN(C(=O)c3nccs3)CC2)C1 [Cpd 81, 1-(4-Fluorophenyl)-5-({3-[1-(1,3-thiazol-2-ylcarbonyl)piperidin-4-yl]azetidin-1-yl}carbonyl)-1H-benzimidazole]
13 | 0.034 | – | 0.0221 | O=C(c1ccc2c(c1)[nH]c(=O)n2-c1ccc(F)cc1)N1CC(C2CCN(C(=O)c3nccs3)CC2)C1 [Cpd 97, 1-(4-Fluorophenyl)-5-({3-[1-(1,3-thiazol-2-ylcarbonyl)piperidin-4-yl]azetidin-1-yl}carbonyl)-1,3-dihydro-2H-benzimidazol-2-one]
14 | 0.0876 | 0.0641 | – | O=C(c1ccc(-c2ccccc2)cc1)N1CC(C2CCN(C(=O)c3cncs3)CC2)C1 [Cpd 5, 4-[1-(Biphenyl-4-ylcarbonyl)azetidin-3-yl]-1-(1,3-thiazol-5-ylcarbonyl)piperidine]
15 | < 0.005 | – | 0.0039 | O=C(c1ccc2c(ccn2-c2ccc(C(F)(F)F)cc2)c1)N1CCC(C2CN(C(=O)c3nccs3)C2)CC1 [Cpd 75, 5-({4-[1(1,3-Thiazol-2-ylcarbonyl)azetidin-3-yl]piperidin-1-yl}carbonyl)-1-[4-(trifluoromethyl)phenyl]-1H-indole]
16 | 0.014 | – | 0.0386 | Cc1cc(-n2ccc3cc(C(=O)N4CC(C5CCN(C(=O)c6nccs6)CC5)C4)ccc32)ccn1 [Cpd 95, 1-(2-Methylpyridin-4-yl)-5-({3-[1-(1,3-thiazol-2-ylcarbonyl)piperidin-4-yl]azetidin-1-yl}carbonyl)-1H-indole]
17 | 0.00916 | – | 0.0136 | O=C(c1ccc2c(c1)ncn2-c1ccc(C(F)(F)F)cc1)N1CC(C2CCN(C(=O)c3nccs3)CC2)C1 [Cpd 83, 5-({30[1-(1,3-Thiazol-2-ylcarbonyl)piperidin-4-yl]azetidin-1-yl}carbonyl)-1-[4-(trifluoromethyl)phenyl]-1H-benzimidazole]
18 | 0.00949 | – | 0.0133 | Cc1nc2cc(C(=O)N3CC(C4CCN(C(=O)c5nccs5)CC4)C3)ccc2n1-c1ccc(F)c(F)c1 [Cpd 88, 1-(3,4-Difluorophenyl)-2-methyl-5-({3-[1-(1,3-thiazol-2-ylcarbonyl)piperidin-4-yl]azetidin-1-yl}carbonyl)-1H-benzimidazole]
19 | < 0.005 | 0.0006 | – | O=C(c1ccc2c(ccn2-c2ccc(F)c(F)c2)c1)N1CC(C2CCN(C(=O)c3nccs3)CC2)C1
20 | < 0.005 | 0.0055 | – | O=C(c1ccc2c(ccn2-c2ccc(Cl)cn2)c1)N1CC(C2CCN(C(=O)c3nccs3)CC2)C1 [Cpd 93, 1-(5-Chloropyridin-2-yl)-5-({3-[1-(1,3-thiazol-2-ylcarbonyl)piperidin-4-yl]azetidin-1-yl}carbonyl)-1H-indole]
